Read-outs that look alike come from different tables or passages of the source.
Experiments:
[1] = system: MCF-7 (human breast cancer); assay: MTT in vitro cytotoxicity assay, MCF-7; format: cell-based; conditions: read-out: IC50 MCF-7
[2] = system: human cancer cell lines (Hela, MCF-7, DU-145, A549, HepG2, HT-29); assay: MTT in vitro cytotoxicity assay, all tested human cancer cell lines; format: cell-based; conditions: range over Hela, read-out: IC50 values ranging over all tested human cancer cell lines
Description: The IC50 values (in μM) for compounds 8a, 8c, 8n, 8p, 9c and 9p have been illustrated in Table 1.

HepG2 (liver cancer) = assay: MTT in vitro cytotoxicity assay, HepG2; format: cell-based; conditions: Homo sapiens, read-out: IC50 HepG2
HT-29 (colon cancer) = assay: MTT in vitro cytotoxicity assay, HT-29; format: cell-based; conditions: Homo sapiens, read-out: IC50 HT-29
A549 (human lung cancer) = assay: MTT in vitro cytotoxicity assay, A549; format: cell-based; conditions: read-out: IC50 A549
[3] = system: Hela (human cervical cancer); assay: MTT in vitro cytotoxicity assay, Hela; format: cell-based; conditions: read-out: IC50 Hela
[4] = system: DU-145 (human prostate cancer); assay: MTT in vitro cytotoxicity assay, DU-145; format: cell-based; conditions: read-out: IC50 DU-145

Question: For COc1ccc(Cn2cc(C(=O)N[C@@H]3c4cc5c(cc4[C@@H](c4cc(OC)c(OC)c(OC)c4)[C@H]4C(=O)OC[C@@H]43)OCO5)nn2)cc1 [Compound 9c, 1-(4-methoxybenzyl)-N-((5S,5aS,8aR,9R)-8-oxo-9-(3,4,5-trimethoxyphenyl)-5,5a,6,8,8a,9-hexahydrofuro[3′,4′:6,7]naphtho[2,3-d][1,3]dioxol-5-yl)-1H-1,2,3-triazole-4-carboxamide], which melting point is on record?
Answer: 174 to 177 °C

Question: What about the IC50 ([1]; MCF7, 48 h) of the same compound?
Answer: 3320 ± 550 nM

Question: And the IC50 [2]?
Answer: 700 to 4000 nM

Question: What about the IC50 (HepG2 (liver cancer); HepG2, 48 h) of the same compound?
Answer: 1960 ± 70 nM

Question: And the IC50 (HT-29 (colon cancer); HT-29, 48 h)?
Answer: 17500 ± 340 nM

Question: And the IC50 (A549 (human lung cancer); A549, 48 h)?
Answer: 5820 ± 430 nM

Question: And the IC50 ([3]; HeLa, 48 h)?
Answer: 3460 ± 60 nM

Question: What about the IC50 ([4]; DU-145, 48 h) of the same compound?
Answer: 1760 ± 270 nM

Question: With COc1cc([C@@H]2c3cc4c(cc3[C@@H](NC(=O)c3cn(-c5ccccc5)nn3)[C@H]3COC(=O)[C@H]23)OCO4)cc(OC)c1OC [Compound 8a, N-((5S,5aS,8aR,9R)-8-oxo-9-(3,4,5-trimethoxyphenyl)-5,5a,6,8,8a,9-hexahydrofuro[3′,4′:6,7]naphtho[2,3-d][1,3]dioxol-5-yl)-1-phenyl-1H-1,2,3-triazole-4-carboxamide] as the compound, how does the melting point read?
Answer: 170 to 172 °C

Question: And the IC50 ([1]; MCF7, 48 h)?
Answer: 1450 ± 460 nM

Question: What about the IC50 [2] of the same compound?
Answer: 700 to 4000 nM

Question: What about the IC50 (HepG2 (liver cancer); HepG2, 48 h) of the same compound?
Answer: 1940 ± 130 nM

Question: What about the IC50 (HT-29 (colon cancer); HT-29, 48 h) of the same compound?
Answer: 5370 ± 740 nM

Question: What about the IC50 (A549 (human lung cancer); A549, 48 h) of the same compound?
Answer: 1820 ± 110 nM

Question: And the IC50 ([3]; HeLa, 48 h)?
Answer: 2470 ± 240 nM

Question: What about the IC50 ([4]; DU-145, 48 h) of the same compound?
Answer: 1310 ± 110 nM

Question: Which melting point does the source give for COc1cc([C@@H]2c3cc4c(cc3[C@@H](NC(=O)c3cn(-c5ccc(C(F)(F)F)cc5)nn3)[C@H]3COC(=O)[C@H]23)OCO4)cc(OC)c1OC [Compound 8n, N-((5S,5aS,8aR,9R)-8-oxo-9-(3,4,5-trimethoxyphenyl)-5,5a,6,8,8a,9-hexahydrofuro[3′,4′:6,7]naphtho[2,3-d][1,3]dioxol-5-yl)-1-(4-(trifluoromethyl)phenyl)-1H-1,2,3-triazole-4-carboxamide] here?
Answer: 190 to 194 °C

Question: And the IC50 ([1]; MCF7, 48 h)?
Answer: 1350 ± 70 nM

Question: And the IC50 [2]?
Answer: 700 to 4000 nM

Question: And the IC50 (HepG2 (liver cancer); HepG2, 48 h)?
Answer: 1210 ± 270 nM

Question: And the IC50 (HT-29 (colon cancer); HT-29, 48 h)?
Answer: 4400 ± 50 nM

Question: What about the IC50 (A549 (human lung cancer); A549, 48 h) of the same compound?
Answer: 1960 ± 80 nM

Question: And the IC50 ([3]; HeLa, 48 h)?
Answer: 1210 ± 270 nM

Question: And the IC50 ([4]; DU-145, 48 h)?
Answer: 890 ± 20 nM

Question: For COc1cc([C@@H]2c3cc4c(cc3[C@@H](O[C@@H]3O[C@@H]5CO[C@@H](C)O[C@H]5[C@H](O)[C@H]3O)[C@H]3COC(=O)[C@H]23)OCO4)cc(OC)c1O [Etoposide, reference compound], which IC50 ([1]; MCF7, MCF-7, 48 h of drug treatment, average of three individual experiments) is on record?
Answer: 1620 ± 140 nM

Question: What about the IC50 (HepG2 (liver cancer); HepG2, 48 h of drug treatment, average of three individual experiments) of the same compound?
Answer: 2840 ± 270 nM

Question: And the IC50 (HT-29 (colon cancer); HT-29, 48 h of drug treatment, average of three individual experiments)?
Answer: 1870 ± 310 nM

Question: And the IC50 (A549 (human lung cancer); A549, 48 h of drug treatment, average of three individual experiments)?
Answer: 1970 ± 170 nM

Question: What about the IC50 ([3]; Hela, 48 h of drug treatment, average of three individual experiments) of the same compound?
Answer: 2710 ± 520 nM

Question: What about the IC50 ([4]; DU-145, 48 h of drug treatment, average of three individual experiments) of the same compound?
Answer: 2350 ± 50 nM

Question: With COc1cc([C@@H]2c3cc4c(cc3[C@@H](NC(=O)c3cn(Cc5ccc(Cl)cc5)nn3)[C@H]3COC(=O)[C@H]23)OCO4)cc(OC)c1OC [Compound 9p, 1-(4-chlorobenzyl)-N-((5S,5aS,8aR,9R)-8-oxo-9-(3,4,5-trimethoxyphenyl)-5,5a,6,8,8a,9-hexahydrofuro[3′,4′:6,7]naphtho[2,3-d][1,3]dioxol-5-yl)-1H-1,2,3-triazole-4-carboxamide] as the compound, how does the melting point read?
Answer: 180 to 184 °C

Question: And the IC50 ([1]; MCF7, 48 h)?
Answer: 5300 ± 390 nM

Question: And the IC50 [2]?
Answer: 700 to 4000 nM

Question: What about the IC50 (HepG2 (liver cancer); HepG2, 48 h) of the same compound?
Answer: 3540 ± 370 nM

Question: What about the IC50 (HT-29 (colon cancer); HT-29, 48 h) of the same compound?
Answer: 23700 ± 380 nM

Question: What about the IC50 (A549 (human lung cancer); A549, 48 h) of the same compound?
Answer: 8060 ± 60 nM

Question: What about the IC50 ([3]; HeLa, 48 h) of the same compound?
Answer: 3570 ± 160 nM

Question: And the IC50 ([4]; DU-145, 48 h)?
Answer: 2370 ± 80 nM

Question: Which IC50 ([1]; MCF7, 48 h) does the source give for COc1cc([C@@H]2c3cc4c(cc3[C@H](O)[C@H]3COC(=O)[C@H]23)OCO4)cc(OC)c1OC [Podophyllotoxin] here?
Answer: 3060 ± 240 nM

Question: What about the IC50 (HepG2 (liver cancer); HepG2, 48 h) of the same compound?
Answer: 6630 ± 170 nM

Question: What about the IC50 (HT-29 (colon cancer); HT-29, 48 h) of the same compound?
Answer: 4780 ± 160 nM

Question: And the IC50 (A549 (human lung cancer); A549, 48 h)?
Answer: 4600 ± 420 nM

Question: And the IC50 ([3]; HeLa, 48 h)?
Answer: 3450 ± 290 nM

Question: What about the IC50 ([4]; DU-145, 48 h) of the same compound?
Answer: 4150 ± 630 nM

Question: For COc1cc(Cn2cc(C(=O)N[C@@H]3c4cc5c(cc4[C@@H](c4cc(OC)c(OC)c(OC)c4)[C@H]4C(=O)OC[C@@H]43)OCO5)nn2)cc(OC)c1OC, which melting point is on record?
Answer: 189 to 192 °C

Question: Which results are given for COc1ccc(-n2cc(C(=O)N[C@@H]3c4cc5c(cc4[C@@H](c4cc(OC)c(OC)c(OC)c4)[C@H]4C(=O)OC[C@@H]43)OCO5)nn2)cc1 [Compound 8c, 1-(4-methoxyphenyl)-N-((5S,5aS,8aR,9R)-8-oxo-9-(3,4,5-trimethoxyphenyl)-5,5a,6,8,8a,9-hexahydrofuro[3′,4′:6,7]naphtho[2,3-d][1,3]dioxol-5-yl)-1H-1,2,3-triazole-4-carboxamide]?
Answer: melting point: 195 to 197 °C; IC50 ([1]; MCF7, 48 h): 1110 ± 100 nM; IC50 [2]: 700 to 4000 nM; IC50 (HepG2 (liver cancer); HepG2, 48 h): 2790 ± 540 nM; IC50 (HT-29 (colon cancer); HT-29, 48 h): 11400 ± 1660 nM; IC50 (A549 (human lung cancer); A549, 48 h): 1610 ± 380 nM; IC50 ([3]; HeLa, 48 h): 6490 ± 220 nM; IC50 ([4]; DU-145, 48 h): 990 ± 70 nM

Question: For COc1cc([C@@H]2c3cc4c(cc3[C@@H](NC(=O)c3cn(-c5cc(OC)c(OC)c(OC)c5)nn3)[C@H]3COC(=O)[C@H]23)OCO4)cc(OC)c1OC, which melting point is on record?
Answer: 181 to 183 °C

Question: With COc1cc(OC)cc(-n2cc(C(=O)N[C@@H]3c4cc5c(cc4[C@@H](c4cc(OC)c(OC)c(OC)c4)[C@H]4C(=O)OC[C@@H]43)OCO5)nn2)c1 as the compound, how does the melting point read?
Answer: 145 to 148 °C

Question: Which results are given for COc1cc([C@@H]2c3cc4c(cc3[C@@H](NC(=O)c3cn(-c5ccc(Cl)cc5)nn3)[C@H]3COC(=O)[C@H]23)OCO4)cc(OC)c1OC [Compound 8p, 1-(4-chlorophenyl)-N-((5S,5aS,8aR,9R)-8-oxo-9-(3,4,5-trimethoxyphenyl)-5,5a,6,8,8a,9-hexahydrofuro[3′,4′:6,7]naphtho[2,3-d][1,3]dioxol-5-yl)-1H-1,2,3-triazole-4-carboxamide]?
Answer: melting point: 222 to 225 °C; IC50 ([1]; MCF7, 48 h): 970 nM; IC50 [2]: 700 to 4110 nM; IC50 (HepG2 (liver cancer); HepG2, 48 h): 780 nM; IC50 (HT-29 (colon cancer); HT-29, 48 h): 4110 nM; IC50 (A549 (human lung cancer); A549, 48 h): 1200 nM; IC50 ([3]; HeLa, 48 h): 780 nM; IC50 ([4]; DU-145, 48 h): 700 nM

Question: Which melting point does the source give for COc1cc([C@@H]2c3cc4c(cc3[C@@H](NC(=O)c3cn(-c5ccc6c(c5)OCO6)nn3)[C@H]3COC(=O)[C@H]23)OCO4)cc(OC)c1OC here?
Answer: 188 to 191 °C

From US10947248B2, “4β-amidotriazole linked podophyllotoxin derivatives as potential anticancer agents” (COUNCIL OF SCIENTIFIC & INDUSTRIAL RESEARCH, priority 2016, dated 2021)
